Measured values reported in article PMC7782552, “Activation of mitochondrial TUFM ameliorates metabolic dysregulation through coordinating autophagy induction” (Communications Biology, 2021).

Target: T1, TUFM (mitochondrial elongation factor Tu) (Mus musculus, UniProt Q8BFR5)
T1 construct: endogenous protein in 3T3-L1 cell lysate
Assay: DARTS (pronase protection) immunoblot, dose-dependent, and DARTS LC-MS/MS in 3T3-L1 lysate
Type: biochemical

EC50: 14.4 µM
Structure (SMILES): COc1ccc(-c2oc3cc(O)cc(O)c3c(=O)c2O)cc1 [Kaem, kaempferide]
